Assay results as given in patent US20210220241A1, “Body Sculpting” (Sculpt B.V., priority 2014, published 2021).
Structures can show the parent of a compound that is named as a salt.

How the values were obtained:
[1] = Stability / hydrolysis in PBS at 37 degrees (Example 6); assay type: physicochemical; conditions: PBS at 37 degrees
Description: Samples were analyzed using HPLC UV.

[2] = tested on: human fat suspension; assay: In vitro glycerol production assay, 250 mg/ml human fat suspension (Example 9); assay type: cell-based; conditions: for Glycerol production (FIG. 20): 250 mg/ml human fat suspension, 4 hrs at 37 degrees Celsius; for Glycerol content: 4 hrs at 37° C.
Description: Test compounds were added at a concentration as indicated and vials were incubated for 4 hrs at 37° C. Vials were mixed every hour. Glycerol production in 4 hrs was calculated by analyzing glycerol content of the control (a suspension which was not incubated but instead immediately frozen) vs control samples that were incubated for 4 hours. The produced glycerol quantity was set as 100%. The glycerol content of experimental samples was expressed as % of the control.
Experimental samples were frozen after incubation. The fat pellet was removed and upon defrosting, samples were spun down (13000 rpm for 15 min at 4° C.), and clear supernatant was pipetted off and frozen until analysis.
Glycerol was analyzed using an enzymatic kit (Glycerol Assay Kit, Sigma Aldrich). Briefly, in a 96 well plate (Corning), 100 microliter glycerol assay reaction mix was added to 10 microliter samples of supernatant and left to incubate for 20 minutes after shaking for 15 seconds. Absorbance was read by a platereader (Thermo Multiskan FC) at 570 nm. A glycerol calibration line (0.015 microM-1000 microM) was used for quantification.

[3] = tested on: lipase; conditions: inhibitor added 5 minutes before, relative to control; for Effect on hydrolysis of octopamine decanoate in fat suspension: octopamine decanoate 10 microM; for Effect on hydrolysis of synephrine decanoate in fat suspension: synephrine decanoate 10 microM
[4] = female, human, 15 min, 10 microM
Description: Human belly adipose tissue was obtained from obese female subjects that underwent esthetic surgery. Tissue was pottered (Potter RW 19 Nr 29795 of Janke & Kunkel KG) in PBS solution (Irvine Scientific) with 5 mM D(+)-glucose monohydrate at 530 rpm using a Teflon potter tip.
Tissue suspension (1, 7.5, 25 or 240 mg fat/ml PBS, or plasma) was stirred and 1.98 ml aliquots were transferred to polypropylene 2 ml screwcap vials (Sarstedt). […] When inhibition of lipase was studied, propranolol or orlistat were added 5 minutes before addition of the prodrug esters (FIG. 10).
15 minutes after addition of the prodrug, lipolysis was stopped by adding 20 microliter of 1.8% HCl. Samples were spun down (13000 rpm for 3 min at 4° C.) and supernatants were stored at −18° C. for analysis.
Samples were analyzed using HPLC UV. A Gilson 234 auto-injector and Shimadzu hplc pump (10 AdVP) was used in conjunction with a shimadzu UV (10AVp) set at 270 nm. Samples were separated using a reversed phase HPLC column (Thermo BDS Hypersil C18 150 mm×2.1 mm, 3 micrometer). The mobile phase consisted of 1.6 g KH2PO4, 110 mg sodium 1-heptane sulfonate, 1 1 ultrapure water, 15 mL methanol and 1 ml acetic acid at a flowrate of 0.175 ml/min.

Compound: CNCC(O)c1ccc(O)cc1 (racemic) [synephrine, p-synephrine, reference compound]
- Stability in PBS [1]: stable

Compound: CC(C)(C)NCC(O)COc1cccc2[nH]c(=O)[nH]c12 (stereo not shown) [CGP12177]
- Glycerol production (FIG. 20) [2]: increased

Compound: C[C@H](Cc1ccc2c(c1)OC(C(=O)[O-])(C(=O)[O-])O2)NC[C@H](O)c1cccc(Cl)c1.[Na+].[Na+] [CL 316243]
- Glycerol production (FIG. 20) [2]: increased

Compound: CCCCCCCCCCC[C@@H](C[C@@H]1OC(=O)[C@H]1CCCCCC)OC(=O)[C@H](CC(C)C)NC=O [Orlistat]
- Effect on hydrolysis of octopamine decanoate in fat suspension [3]: further suppresses
- Effect on hydrolysis of synephrine decanoate in fat suspension [3]: further suppresses

Compound: CCOC(=O)COc1ccc2c(c1)C[C@@H](NC[C@H](O)c1cccc(Cl)c1)CC2 [SR 58611A, Amibegron]
- Glycerol production (FIG. 20) [2]: increased

Compound: CCc1ccccc1OC[C@@H](O)CN[C@H]1CCCc2ccccc21 [SR 59230]
- Glycerol production (FIG. 20) [2]: reduced

Compound: Cn1c(=O)c2c(ncn2C)n(C)c1=O [caffeine]
- Glycerol production (FIG. 20) [2]: increased

Compound: CC(C)NC[C@H](O)COc1cccc2ccccc12 [propranolol, (S)-(-)-Propranolol HCl]
- Glycerol content ([2]; concentrations above 1000 nM): decreased
- Glycerol content ([2]; concentrations from 0.1 to at least 1000 nM): more or less constant
- Effect on hydrolysis of octopamine decanoate in fat suspension [3]: decreases
- Effect on hydrolysis of synephrine decanoate in fat suspension [3]: decreases

Compound: CCCCCCCCCC(=O)Oc1ccc(C(O)CNC)cc1 (stereo not shown) [synephrine decanoate, 4-(1-hydroxy-2-(methylamino)ethyl)phenyl decanoate]
- Hydrolysis in PBS compared with plasma or fat tissue [1]: much lower rate
- Base level of hydrolysis in fat suspension [4]: 40-45%

Compound: Cc1cccc(C)c1N=C1NCCCS1 [xylazine, Xylazine]
- Glycerol production (FIG. 20) [2]: reduced

Compound: COC(=O)[C@@H]1[C@H]2C[C@H]3c4[nH]c5ccccc5c4CCN3C[C@@H]2CC[C@@H]1O [yohimbine, Yohimbine]
- Glycerol production (FIG. 20) [2]: increased
